Test results as given in patent publication US6737383B1, “Herbicidal oxadiazolidines” (priority 1999, dated 2004).

Legend:
rape = experiment: Test B pre/postemergence rape; type: in vivo, Brassica napus; settings: for Rape plant response rating: Postemergence; for Plant response rating, Rape: Preemergence
Summary of the method: (§1)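 Response is a visual 0-to-10 score relative to untreated plants, where 0 means no effect and 10 means complete control, taken twelve to sixteen days after application. Treatments went onto soil at planting and onto foliage of 1- to 4-leaf plants, using a surfactant-containing non-phytotoxic solvent.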

sugar beet = experiment: Test B pre/postemergence sugar beet; type: in vivo, Beta vulgaris; settings: for Sugarbeets plant response rating: Postemergence; for Plant response rating, Sugarbeets: Preemergence
Summary of the method: as §1

giant foxtail = experiment: Test B pre/postemergence giant foxtail; type: in vivo, Setaria faberii; settings: for Giant foxtail plant response rating: Postemergence; for Plant response rating, Giant foxtail: Preemergence
Summary of the method: as §1

corn = experiment: Test B pre/postemergence corn; type: in vivo, Zea mays; settings: for Corn plant response rating: Postemergence; for Plant response rating, Corn: Preemergence
Summary of the method: as §1

bamyardgrass = experiment: Test B flood test barnyardgrass; type: in vivo, Echinochloa crus-galli
Summary of the method: (§2)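 Each value is a visual injury score relative to controls, with 10 meaning complete control and 0 no effect. Evaluation took place twelve to sixteen days after the 2-leaf-stage plants were treated and kept in the greenhouse.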

purple nutsedge = experiment: Test B pre/postemergence purple nutsedge; type: in vivo, Cyperus rotundus; settings: for Nutsedge plant response rating: Postemergence; for Plant response rating, Nutsedge: Preemergence
Summary of the method: as §1

morningglory = experiment: Test B pre/postemergence morningglory; type: in vivo, Ipomoea hederacea; settings: for Morningglory plant response rating: Postemergence; for Plant response rating, Morningglory: Preemergence
Summary of the method: as §1

rice = experiment: Test B flood test rice; type: in vivo, Oryza sativa
Summary of the method: as §2

velvetleaf = experiment: Test B pre/postemergence velvetleaf; type: in vivo, Abutilon theophrasti; settings: for Velvetleaf plant response rating: Postemergence; for Plant response rating, Velvetleaf: Preemergence
Summary of the method: as §1

bedstraw = experiment: Test B pre/postemergence bedstraw; type: in vivo, Galium aparine; settings: Postemergence
Summary of the method: as §1

surinam grass = experiment: Test B pre/postemergence surinam grass; type: in vivo, Brachiaria decumbens; settings: for B. signalgrass plant response rating: Postemergence; for Plant response rating, B. signalgrass: Preemergence
Summary of the method: as §1

cocklebur = experiment: Test B pre/postemergence cocklebur; type: in vivo, Xanthium strumarium; settings: for Cocklebur plant response rating: Postemergence; for Plant response rating, Cocklebur: Preemergence
Summary of the method: as §1

blackgrass = experiment: Test B pre/postemergence blackgrass; type: in vivo, Alopecurus myosuroides; settings: for Blackgrass plant response rating: Postemergence; for Plant response rating, Blackgrass: Preemergence
Summary of the method: as §1

pigweed = experiment: Test B pre/postemergence pigweed; type: in vivo, Amaranthus retroflexus; settings: for Redroot pigweed plant response rating: Postemergence; for Plant response rating, Redroot pigweed: Preemergence
Summary of the method: as §1

duck salad = experiment: Test B flood test duck salad; type: in vivo, Heteranthera limosa
Summary of the method: as §2

[1] = Rate 125 g/ha, scale of 0 to 10 where 0 is no effect and 10 is complete control
[2] = Rate 1000 g/ha, scale 0 to 10 (0 no effect, 10 complete control)
[3] = Rate 500 g/ha, scale of 0 to 10 where 0 is no effect and 10 is complete control
[4] = Rate 250 g/ha, scale 0 to 10, 0 is no effect, 10 is complete control
[5] = Rate 500 g/ha, scale 0 to 10, 0 is no effect, 10 is complete control
[6] = Rate 250 g/ha, scale 0 to 10 (0 no effect, 10 complete control)
[7] = Pre-emergence, Rate 1000 g/ha, scale 0 to 10 (0 no effect, 10 complete control)
[8] = Rate 125 g/ha, under heading Pre-emergence, flood test species, visual evaluation after twelve to sixteen days
[9] = Rate 250 g/ha, Pre-emergence (flood test species), scale 0 to 10, 0 is no effect, 10 is complete control
[10] = Rate 500 g/ha, Pre-emergence section of Table B, 0 to 10 scale (0 no effect, 10 complete control)

COC(=O)C(CCO)n1c(=O)on(C(=O)N(c2ccc(F)cc2)C(C)C)c1=O (stereo not drawn) [Compound 680]
Rape plant response rating (rape; [1]): 0
Rape plant response rating (rape; [2]): 0
Plant response rating, Rape (rape; [1]): 0
Plant response rating, Rape (rape; [3]): 0
Rape plant response rating (rape; [4]): 0
Rape plant response rating (rape; [5]): 0
Plant response rating, Rape (rape; [2]): 0
Sugarbeets plant response rating (sugar beet; [1]): 0
Plant response rating, Sugarbeets (sugar beet; [1]): 0
Plant response rating, Sugarbeets (sugar beet; [3]): 0
Sugarbeets plant response rating (sugar beet; [4]): 0
Sugarbeets plant response rating (sugar beet; [5]): 0
Plant response rating, Sugarbeets (sugar beet; [2]): 0
Giant foxtail plant response rating (giant foxtail; [1]): 0
Giant foxtail plant response rating (giant foxtail; [2]): 8
Plant response rating, Giant foxtail (giant foxtail; [1]): 0
Plant response rating, Giant foxtail (giant foxtail; [3]): 4
Giant foxtail plant response rating (giant foxtail; [4]): 0
Giant foxtail plant response rating (giant foxtail; [5]): 5
Plant response rating, Giant foxtail (giant foxtail; [2]): 7
Corn plant response rating (corn; [1]): 0
Corn plant response rating (corn; [2]): 1
Plant response rating, Corn (corn; [1]): 0
Plant response rating, Corn (corn; [6]): 0
Plant response rating, Corn (corn; [3]): 0
Corn plant response rating (corn; [4]): 0
Corn plant response rating (corn; [5]): 0
Plant response rating, Corn (corn; [2]): 0
Barnyardgrass plant response rating (bamyardgrass; [7]): 0
Barnyardgrass plant response rating (0 to 10 scale, 0 is no effect, 10 is complete control) (bamyardgrass; [8]): 0
Barnyardgrass plant response rating (bamyardgrass; [9]): 0
Barnyardgrass plant response rating (bamyardgrass; [10]): 0
Nutsedge plant response rating (purple nutsedge; [1]): 0
Plant response rating, Nutsedge (purple nutsedge; [1]): 0
Plant response rating, Nutsedge (purple nutsedge; [3]): 0
Nutsedge plant response rating (purple nutsedge; [4]): 0
Nutsedge plant response rating (purple nutsedge; [5]): 0
Plant response rating, Nutsedge (purple nutsedge; [2]): 0
Morningglory plant response rating (morningglory; [1]): 1
Morningglory plant response rating (morningglory; [2]): 7
Plant response rating, Morningglory (morningglory; [1]): 0
Plant response rating, Morningglory (morningglory; [3]): 0
Morningglory plant response rating (morningglory; [4]): 1
Morningglory plant response rating (morningglory; [5]): 1
Plant response rating, Morningglory (morningglory; [2]): 0
Rice plant response rating (rice; [7]): 0
Rice plant response rating (0 to 10 scale, 0 is no effect, 10 is complete control) (rice; [8]): 0
Rice plant response rating (rice; [9]): 0
Rice plant response rating (rice; [10]): 0
Velvetleaf plant response rating (velvetleaf; [1]): 0
Plant response rating, Velvetleaf (velvetleaf; [1]): 0
Plant response rating, Velvetleaf (velvetleaf; [3]): 0
Velvetleaf plant response rating (velvetleaf; [4]): 0
Velvetleaf plant response rating (velvetleaf; [5]): 0
Plant response rating, Velvetleaf (velvetleaf; [2]): 4
Bedstraw plant response rating (bedstraw; [1]): 0
Bedstraw plant response rating (bedstraw; [4]): 0
Bedstraw plant response rating (bedstraw; [5]): 0
B. signalgrass plant response rating (surinam grass; [1]): 0
B. signalgrass plant response rating (surinam grass; [2]): 3
Plant response rating, B. signalgrass (surinam grass; [1]): 0
Plant response rating, B. signalgrass (surinam grass; [6]): 0
Plant response rating, B. signalgrass (surinam grass; [3]): 0
B. signalgrass plant response rating (surinam grass; [4]): 0
B. signalgrass plant response rating (surinam grass; [5]): 0
Plant response rating, B. signalgrass (surinam grass; [2]): 0
Cocklebur plant response rating (cocklebur; [1]): 0
Cocklebur plant response rating (cocklebur; [2]): 0
Plant response rating, Cocklebur (cocklebur; [1]): 0
Plant response rating, Cocklebur (cocklebur; [6]): 0
Plant response rating, Cocklebur (cocklebur; [3]): 0
Cocklebur plant response rating (cocklebur; [4]): 0
Cocklebur plant response rating (cocklebur; [5]): 0
Plant response rating, Cocklebur (cocklebur; [2]): 0
Blackgrass plant response rating (blackgrass; [1]): 0
Blackgrass plant response rating (blackgrass; [2]): 3
Plant response rating, Blackgrass (blackgrass; [1]): 0
Plant response rating, Blackgrass (blackgrass; [6]): 0
Plant response rating, Blackgrass (blackgrass; [3]): 4
Blackgrass plant response rating (blackgrass; [4]): 0
Blackgrass plant response rating (blackgrass; [5]): 1
Plant response rating, Blackgrass (blackgrass; [2]): 4
Redroot pigweed plant response rating (pigweed; [1]): 0
Redroot pigweed plant response rating (pigweed; [2]): 5
Plant response rating, Redroot pigweed (pigweed; [1]): 0
Plant response rating, Redroot pigweed (pigweed; [3]): 3
Redroot pigweed plant response rating (pigweed; [4]): 0
Redroot pigweed plant response rating (pigweed; [5]): 0
Plant response rating, Redroot pigweed (pigweed; [2]): 7
Ducksalad plant response rating (duck salad; [7]): 0
Ducksalad plant response rating (0 to 10 scale, 0 is no effect, 10 is complete control) (duck salad; [8]): 0
Ducksalad plant response rating (duck salad; [9]): 0
Ducksalad plant response rating (duck salad; [10]): 0
